Measurements as given in US12564638B2 (SHANGHAITECH UNIVERSITY, priority 2019, dated 2026).

System: HCC827 cells (EGFR Exon19 del, non-small cell lung cancer cells)
Assay: Cell viability assay (WST/CCK8), HCC827 cells
Format: cell-based
Details: Homo sapiens, HCC827, 72 h, Table 3, poziotinib-based compounds; HCC827 (Exon19 Del); 72 hours; WST (CCK8); read-out: IC50 (half inhibitory concentration)
From the text: The cell lines with abnormal EGFR expression used are as follows: • HCC827 cells (EGFR Exon19 del, non-small cell lung cancer cells); • PC9 cells (EGFR Exon 19 del, non-small cell lung cancer cells); • PC9BracA1 (EGFR Exon 19 del+T790M, non-small cell lung cancer cells) • H1975 (EGFR Exon T790M+L858R mutation, non-small cell lung cancer cell line) • BT474 cells (HER2 positive breast cancer cells)
All of the half inhibitory concentrations (IC50) of these compounds of the present invention were determined with WST reagent from Fuyuan Biotec Company. The specific experiment procedures are as follows: Cancer cells were planted in 96-well-plate at the density of 3 000 cells per well with 100 μL RPMI1640 completed culture medium. In the next day, compounds with indicated concentrations were added to the cells, DMSO was used as the negative control and the EGFR TKIs were used to treat cells as the positive groups. After 72 hours drug treatment, cell viability was measured by using the WST reagent following the instructions.
The cells were treated with the gradient concentration of these compounds (the maximum concentration: 10 μM; 3-fold dilution ratio, 10 concentration gradients) for 72 hours and then incubated with the WST (CCK8) reagent to determine the cell viability.

IC50	Compound
75.4 nM	COc1cc2ncnc(Nc3ccc(Cl)c(Cl)c3F)c2cc1OC1CCN(C(=O)CCCCC(=O)N[C@H](C(=O)N2C[C@H](O)C[C@H]2C(=O)NCc2ccc(-c3scnc3C)cc2)C(C)(C)C)CC1 [SIAIS249021, (2S,4R)-1-((S)-2-(6-(4-((4-((3,4-dichloro-2-fluorophenyl)amino)-7-methoxyquinazolin-6-yl)oxy)piperidin-1-yl)-6-oxohexanamido)-3,3-dimethylbutanoyl)-4-hydroxy-N-(4-(4-methylthiazol-5-yl)benzyl)pyrrolidine-2-carboxamide]
40 nM	COc1cc2ncnc(Nc3ccc(Cl)c(Cl)c3F)c2cc1OC1CCN(C(=O)CCCCCCC(=O)N[C@H](C(=O)N2C[C@H](O)C[C@H]2C(=O)NCc2ccc(-c3scnc3C)cc2)C(C)(C)C)CC1 [SIAIS249022, (2S,4R)-1-((S)-2-(8-(4-((4-((3,4-dichloro-2-fluorophenyl)amino)-7-methoxyquinazolin-6-yl)oxy)piperidin-1-yl)-8-oxooctanamido)-3,3-dimethylbutanoyl)-4-hydroxy-N-(4-(4-methylthiazol-5-yl)benzyl)pyrrolidine-2-carboxamide]
49 nM	COc1cc2ncnc(Nc3ccc(Cl)c(Cl)c3F)c2cc1OC1CCN(C(=O)CCCCCCCCC(=O)N[C@H](C(=O)N2C[C@H](O)C[C@H]2C(=O)NCc2ccc(-c3scnc3C)cc2)C(C)(C)C)CC1 [SIAIS249023, (2S,4R)-1-((S)-2-(10-(4-((4-((3,4-dichloro-2-fluorophenyl)amino)-7-methoxyquinazolin-6-yl)oxy)piperidin-1-yl)-10-oxodecanamido)-3,3-dimethylbutanoyl)-4-hydroxy-N-(4-(4-methylthiazol-5-yl)benzyl)pyrrolidine-2-carboxamide]
174 nM	COc1cc2ncnc(Nc3ccc(Cl)c(Cl)c3F)c2cc1OC1CCN(C(=O)COCCOCC(=O)N[C@H](C(=O)N2C[C@H](O)C[C@H]2C(=O)NCc2ccc(-c3scnc3C)cc2)C(C)(C)C)CC1 [SIAIS249024, (2S,4R)-1-((S)-2-(2-(2-(2-(4-((4-((3,4-dichloro-2-fluorophenyl)amino)-7-methoxyquinazolin-6-yl)oxy)piperidin-1-yl)-2-oxoethoxy)ethoxy)acetamido)-3,3-dimethylbutanoyl)-4-hydroxy-N-(4-(4-methylthiazol-5-yl)benzyl)pyrrolidine-2-carboxamide]
158 nM	COc1cc2ncnc(Nc3ccc(Cl)c(Cl)c3F)c2cc1OC1CCN(C(=O)CCOCCOCCC(=O)N[C@H](C(=O)N2C[C@H](O)C[C@H]2C(=O)NCc2ccc(-c3scnc3C)cc2)C(C)(C)C)CC1 [SIAIS249025, (2S,4R)-1-((S)-2-(3-(2-(3-(4-((4-((3,4-dichloro-2-fluorophenyl)amino)-7-methoxyquinazolin-6-yl)oxy)piperidin-1-yl)-3-oxopropoxy)ethoxy)propanamido)-3,3-dimethylbutanoyl)-4-hydroxy-N-(4-(4-methylthiazol-5-yl)benzyl)pyrrolidine-2-carboxamide]
266 nM	COc1cc2ncnc(Nc3ccc(Cl)c(Cl)c3F)c2cc1OC1CCN(C(=O)CCOCCOCCOCCC(=O)N[C@H](C(=O)N2C[C@H](O)C[C@H]2C(=O)NCc2ccc(-c3scnc3C)cc2)C(C)(C)C)CC1 [SIAIS249026, (2S,4R)-1-((S)-2-(tert-butyl)-16-(4-((4-((3,4-dichloro-2-fluorophenyl)amino)-7-methoxyquinazolin-6-yl)oxy)piperidin-1-yl)-4,16-dioxo-7,10,13-trioxa-3-azahexadecan-1-oyl)-4-hydroxy-N-(4-(4-methylthiazol-5-yl)benzyl)pyrrolidine-2-carboxamide]
400 nM	COc1cc2ncnc(Nc3ccc(Cl)c(Cl)c3F)c2cc1OC1CCN(C(=O)CCOCCOCCOCCOCCC(=O)N[C@H](C(=O)N2C[C@H](O)C[C@H]2C(=O)NCc2ccc(-c3scnc3C)cc2)C(C)(C)C)CC1 [SIAIS249027, (2S,4R)-1-((S)-2-(tert-butyl)-19-(4-((4-((3,4-dichloro-2-fluorophenyl)amino)-7-methoxyquinazolin-6-yl)oxy)piperidin-1-yl)-4,19-dioxo-7,10,13,16-tetraoxa-3-azanonadecan-1-oyl)-4-hydroxy-N-(4-(4-methylthiazol-5-yl)benzyl)pyrrolidine-2-carboxamide]
